Measured values reported in US6159940A, “Method for modulating hemopoiesis” (Immunotech Developments Inc., priority 1999, dated 2000).

Experiments:
Antibody Forming Cells = Antibody Forming Cells count (Jerne) in spleen after immunization with sheep erythrocytes; type: in vivo, (CBA×C57BL)F1 mice
Description: Females and male (CBA×C57BL)F1 mice, aged about 2.5 months weighing about 20 g, were irradiated with gamma-rays using a "Luch-1" apparatus. Immunological activity was assessed according to Jerne (Antibody Forming Cells count--AFC). T-cell count in spleen was determined by the method of spontaneous rosette formation with sheep erythrocytes (E-FRC). The peptide was injected intramuscularly.
Mice were irradiated in a dose of 2 Gy, the peptide was injected in the dose of 10 μg/kg according to the following scheme (to determine T-cell count by the method of spontaneous rosette formation): 1 time--an hour after the irradiation; 2 times--an hour, and a day after irradiation; 3 times--an hour, a day, and two days after the irradiation; 4 times--an hour, a day, two days and three days after the irradiation. The intact mice recieved the peptide 3 or 4 times. The control group (2 Gy) recieved injections of physiological solution according to the same schedule. On completion of the treatment course, 10 mice from each group were immunized with sheep erythrocytes (SE) and 4-5 days later AFC counts were determined in their spleens. The rest of the mice were used to find T-cell count by the method of spontaneous rosette formation. The state of the organs of immune system (spleen and thymus) in mice with radiation immunodeficiency against the background of H-Ile-Glu-Trp-OH treatment was also listed by nucleated cell counts in thymus and spleen per mg of organ weight. AFC/mg Spleen weight is presented as an average of two experiments.

Allergenicity study = type: in vivo, rabbits; settings: subcutaneous 0.01% solution for 5 days
Description: The study was performed in 12 rabbits, who received subcutaneous injections of 0.01% H-Ile-Glu-Trp-OH solution for 5 days. The control animals were injected with horse serum.

nucleated blood cells = assay: Nucleated blood cells and lymphocytes in irradiated mice (4 Gy), scheme 1; type: in vivo; parameters: Lymphocytes (absolute) in blood: unit not given here; settings: for Karyocyte Count in Blood: scheme 1, 10 μg/kg i.m.
Description: Irradiated mice (4 Gy) received intramuscular injections of the peptide in the dose of 10 μg/kg according to 2 schemes.
a) Scheme 1: mice received the peptide immediately after irradiation, daily. […] Blood samples were taken four hours after the last peptide injection and on the 7th, 10th, and 16th day after the irradiation. Determined were total count of nucleated blood cells (NC) and lymphocyte percentage of them; nucleated cells and the CFU-S population in femoral bone marrow were counted on the 4th, 8th, and the 14th day.

[1] = system: hemopoietic progenitor cells; assay: Exogenous spleen colonies from irradiated bone marrow cells; type: in vivo, mice; settings: day 9
Description: For this purpose, known methods using exogenous spleen colonies were applied. […] Different doses of the peptide were injected intravenously (i.v.), intraperitoneally (i.p.), or intramuscularly (i.m.) to lethally irradiated recipients an hour after the injections of irradiated bone marrow. Colonies were counted on day 9. 350 mice were used as test animals. The data for each group are the average of three tests.

[2] = Observation during study of specific and general pharmacological activity; type: in vivo, mice, guinea pigs, rats, rabbits; settings: during the study and 1-6 month observation period
Description: In the study of specific and general pharmacological activity, the test animals were mice, guinea pigs, rats, rabbits. Some tests were performed using lymphocyte or monocyte cultures of the peritheric blood of donors and patients with different diseases accompanied by immunity disorders.

CFU-S = assay: Reconstitution of CFU-S and nucleated cells in irradiated mice (4 Gy), i.v. versus i.m.; type: in vivo
Description: A further study of the effect of the peptide, using different methods of administration, on the dynamics of reconstitution of CFU-S, Nucleated blood Cells (NC) in the femoral bone marrow and peritheric blood (mm) of irradiated mice (4 Gy) was conducted.
Donor mice were irradiated with γ-rays in the dose of 4 Gy. Then they received the petide i.v. or i.m. 1, 2, 3, or 4 times, once a day, starting from the 1 first hour of the 3rd day after the irradiation (10 μg/kg per injection). […] At different intervals after the irradiation 10 mice were taken from each group to determine CFU-S in the bone marrow. The mice were killed, cell suspensions were prepared from the bone marrow and injected to lethally irradiated recipients. NC were counted in the femoral bone marrow and peritheric blood, and the lymphocyte percentage was found.

[3] = Chronic toxicity: peritheric blood and internals, 30 days, guinea pigs; type: in vivo; settings: once daily for 30 days
Description: II.1 The H-Ile-Glu-Trp-OH effect on the composition and properties of the peritheric blood, the morphological state of the internals.
The drug was injected once daily for 30 days.
The test animals were 20 rabbits and 40 guinea pigs.

[4] = Local irritating effect, rabbits; type: in vivo
Text: The local irritating effect of H-Ile-Glu-Trp-OH was studied in 20 guinea pigs and 5 rabbits.

## H-Ile-Glu-Trp-OH
Antibody Forming Cells; 2 Gy, 10 μg/kg i.m., 3 Injection
  AFC/mg Spleen: 152.4 ± 4.1
Antibody Forming Cells; 2 Gy, 10 μg/kg i.m., 4 Injection
  AFC/mg Spleen: 158.1 ± 7.1
Antibody Forming Cells; intact mice, 3 Injections
  AFC/mg Spleen: 621.1 ± 14.2
Antibody Forming Cells; intact mice, 4 Injections
  AFC/mg Spleen: 676.1 ± 47.5
Antibody Forming Cells; intact mice, humoral response to SE
  AFC increase: 5 times
Antibody Forming Cells; irradiated mice, 3 and 4 injections
  number of antibody forming cells: practically doubled
Allergenicity study
  reaction on the injection sites: No macroscopic reaction
Nucleated blood cells; scheme 1 (footnote of Table 7)
  Survival: 100%
Nucleated blood cells; 1 Time, Day 4
  Karyocyte Count in Blood: 0.80 ± 0.5 × 10^3 /lmm^3
Nucleated blood cells; 1 Time, Day 7
  Karyocyte Count in Blood: 3.53 ± 0.5 × 10^3 /lmm^3
Nucleated blood cells; 1 Time, Day 10
  Karyocyte Count in Blood: 4.30 ± 0.3 × 10^3 /lmm^3
Nucleated blood cells; 1 Time, Day 16
  Karyocyte Count in Blood: 4.49 ± 0.8 × 10^3 /lmm^3
Nucleated blood cells; 2 Times, Day 4
  Karyocyte Count in Blood: 1.30 ± 0.2 × 10^3 /lmm^3
Nucleated blood cells; 2 Times, Day 7
  Karyocyte Count in Blood: 3.64 ± 0.6 × 10^3 /lmm^3
Nucleated blood cells; 2 Times, Day 10
  Karyocyte Count in Blood: 6.42 ± 0.7 × 10^3 /lmm^3
Nucleated blood cells; 2 Times, Day 16
  Karyocyte Count in Blood: 5.96 ± 1.0 × 10^3 /lmm^3
Nucleated blood cells; 3 Times, Day 4
  Karyocyte Count in Blood: 1.19 ± 0.1 × 10^3 /lmm^3
Nucleated blood cells; 3 Times, Day 7
  Karyocyte Count in Blood: 5.58 ± 0.7 × 10^3 /lmm^3
Nucleated blood cells; 3 Times, Day 10
  Karyocyte Count in Blood: 4.18 ± 0.8 × 10^3 /lmm^3
Nucleated blood cells; 3 Times, Day 16
  Karyocyte Count in Blood: 6.32 ± 0.7 × 10^3 /lmm^3
Nucleated blood cells; 4 Times, Day 4
  Karyocyte Count in Blood: 1.64 ± 0.2 × 10^3 /lmm^3
Nucleated blood cells; 4 Times, Day 7
  Karyocyte Count in Blood: 4.14 ± 0.8 × 10^3 /lmm^3
Nucleated blood cells; 4 Times, Day 10
  Karyocyte Count in Blood: 4.90 ± 0.7 × 10^3 /lmm^3
Nucleated blood cells; 4 Times, Day 16
  Karyocyte Count in Blood: 7.32 ± 1.0 × 10^3 /lmm^3
Nucleated blood cells; scheme 1, 1 Time, Day 4
  Lymphocytes (absolute) in blood: 232
  Lymphocytes, % in blood: 29.0 ± 2.5%
Nucleated blood cells; scheme 1, 1 Time, Day 7
  Lymphocytes (absolute) in blood: 1365
  Lymphocytes, % in blood: 38.8 ± 3.1%
Nucleated blood cells; scheme 1, 1 Time, Day 10
  Lymphocytes (absolute) in blood: 1118
  Lymphocytes, % in blood: 26.3 ± 2.9%
Nucleated blood cells; scheme 1, 1 Time, Day 16
  Lymphocytes (absolute) in blood: 2412
  Lymphocytes, % in blood: 53.6 ± 6.0%
Nucleated blood cells; scheme 1, 2 Times, Day 4
  Lymphocytes (absolute) in blood: 468
  Lymphocytes, % in blood: 36.0 ± 1.7%
Nucleated blood cells; scheme 1, 2 Times, Day 7
  Lymphocytes (absolute) in blood: 1260
  Lymphocytes, % in blood: 34.8 ± 2.1%
Nucleated blood cells; scheme 1, 2 Times, Day 10
  Lymphocytes (absolute) in blood: 1664
  Lymphocytes, % in blood: 25.5 ± 2.7%
Nucleated blood cells; scheme 1, 2 Times, Day 16
  Lymphocytes (absolute) in blood: 2682
  Lymphocytes, % in blood: 44.8 ± 6.2%
Nucleated blood cells; scheme 1, 3 Times, Day 4
  Lymphocytes (absolute) in blood: 432
  Lymphocytes, % in blood: 36.0 ± 1.3%
Nucleated blood cells; scheme 1, 3 Times, Day 7
  Lymphocytes (absolute) in blood: 1512
  Lymphocytes, % in blood: 27.1 ± 1.9%
Nucleated blood cells; scheme 1, 3 Times, Day 10
  Lymphocytes (absolute) in blood: 1233
  Lymphocytes, % in blood: 29.5 ± 3.6%
Nucleated blood cells; scheme 1, 3 Times, Day 16
  Lymphocytes (absolute) in blood: 2853
  Lymphocytes, % in blood: 44.8 ± 4.80%
Nucleated blood cells; scheme 1, 4 Times, Day 4
  Lymphocytes (absolute) in blood: 639
  Lymphocytes, % in blood: 39.0 ± 2.9%
Nucleated blood cells; scheme 1, 4 Times, Day 7
  Lymphocytes (absolute) in blood: 1025
  Lymphocytes, % in blood: 25.6 ± 3.7%
Nucleated blood cells; scheme 1, 4 Times, Day 10
  Lymphocytes (absolute) in blood: 1475
  Lymphocytes, % in blood: 30.7 ± 6.5%
Nucleated blood cells; scheme 1, 4 Times, Day 16
  Lymphocytes (absolute) in blood: 2847
  Lymphocytes, % in blood: 38.5 ± 1.40%
[1]; bone marrow 1 Gy, 2.5 mcg/Kg i.v.
  Colony Count: 6.0 ± 0.7
[1]; bone marrow 1 Gy, 10 mcg/Kg i.m.
  Colony Count: 10.6 ± 0.8
[1]; bone marrow 1 Gy, 10 mcg/Kg i.p.
  Colony Count: 8.2 ± 0.7
[1]; bone marrow 1 Gy, 10 mcg/Kg i.v.
  Colony Count: 8.7 ± 0.4
[1]; bone marrow 1 Gy, 25 mcg/Kg i.v.
  Colony Count: 7.6 ± 0.4
[1]; bone marrow 1 Gy, 50 mcg/Kg i.v.
  Colony Count: 7.1 ± 0.5
[1]; bone marrow 1 Gy, 100 mcg/Kg i.v.
  Colony Count: 6.0 ± 0.5
[1]; bone marrow 1 Gy, 200 mcg/Kg i.v.
  Colony Count: 5.3 ± 0.7
[1]; bone marrow 1 Gy, 500 mcg/Kg i.v.
  Colony Count: 4.2 ± 0.3
[1]; bone marrow 3 Gy, 10 mcg/Kg i.v.
  Colony Count: 2.3 ± 0.3
[2]
  toxic or allergic reactions: no toxic or allergic reactions were observed
CFU-S; IM 10 μg/kg
  NC content in the bone marrow: no effect
CFU-S; IM 10 μg/kg (especially 1, 2, 3 times)
  reconstitution of the CFU-S pool: positively influenced the reconstitution of the CFU-S pool earlier, beginning from day 8
CFU-S; i.v. 10 μg/kg 1, 3, or 4 times
  reconstitution of the CFU-S pool: helped better reconstitution of the CFU-S pool by day 14 only
[3]
  pathologic changes in the body or peritheric blood: did not cause any pathologic changes
[4]
  local irritating effect: no local irritating effect
